Reference: BindingDB's records for doi:10.1021/jm000023o (Cocensys, 2000)

Experiments:
[1] = Concentration required for 50% Inhibition of responses at cloned NR1A/2AB N-methyl-D-aspartate (NMDA) expressed in Xenopus oocytes
[2] = as above; remark: listed apart in the source

IC50 [1] [µM] | IC50 [2] [µM] | SMILES
0.1 | – | Oc1ccc(C#CCN2CCC(Cc3ccccc3)CC2)cc1 [4-[3-(4-Benzyl-piperidin-1-yl)-prop-1-ynyl]-phenol]
– | 6.1 | C(#Cc1ccc2cc[nH]c2c1)CCN1CCC(Cc2ccccc2)CC1 [6-[4-(4-Benzyl-piperidin-1-yl)-but-1-ynyl]-1H-indole]
